Values quoted from earlier work as cited in patent publication US20050266042A1, “Methods and apparatus for treatment of aneurysmal tissue” (Medtronic Vascular, Inc., priority 2004, published 2005).

Conditions: for route of elimination / clearance: in vivo

Structure (SMILES) | route of elimination / clearance | also measured
C[C@H](CS)C(=O)N1CCC[C@H]1C(=O)O [captopril] |  | bioavailability (given orally): about 75%
NCCCC[C@H](N[C@@H](CCc1ccccc1)C(=O)O)C(=O)N1CCC[C@H]1C(=O)O [lisinopril] |  | time to peak concentrations in the plasma (oral administration): about 7 hours
CCC(=O)O[C@@H](O[P@](=O)(CCCCc1ccccc1)CC(=O)N1C[C@H](C2CCCCC2)C[C@H]1C(=O)O)C(C)C [fosinopril] | balanced elimination by the liver and kidneys | 
CCOC(=O)[C@H](CCc1ccccc1)N[C@@H](C)C(=O)N1CC2(C[C@H]1C(=O)O)SCCS2 [spirapril] | balanced elimination by the liver and kidneys | 
